Assay results published in PubChem BioAssay AID2060613 (Molecular Pharmacology Branch, DTP, NCI, 2025).
Blank lines part the entries; values can stand above or below the molecule they belong to.

Test system: 233499-124-R-J3-PDC complex spheroid viability
Test: Anticancer human tumor 233499-124-R-J3-PDC patient-derived colon adenocarcinoma cell line growth inhibition [CLK]
Conditions: for IC50: curve of first compound; for viability, T/C: stronger effect = lower value
Procedure, shortened: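 Multi-cell-type spheroids combined patient-derived tumor cells with HUVEC endothelial cells and human mesenchymal stem cells. Paired agents were dosed in half-log steps down from about clinical Cmax, or from 10 microM where Cmax was unknown.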

[1] = second compound 0.0316 µM, first compound 0.0316 µM
[2] = second compound 0.0316 µM, first compound 0.1 µM
[3] = second compound 0.0316 µM, first compound 0.316 µM
[4] = second compound 0.0316 µM, first compound 1 µM
[5] = second compound 0.0316 µM, first compound 3.16 µM
[6] = second compound 0.0316 µM, first compound 10 µM
[7] = second compound 0.1 µM, first compound 0.0316 µM
[8] = second compound 0.1 µM, first compound 0.1 µM
[9] = second compound 0.1 µM, first compound 0.316 µM
[10] = second compound 0.1 µM, first compound 1 µM
[11] = second compound 0.1 µM, first compound 3.16 µM
[12] = second compound 0.1 µM, first compound 10 µM
[13] = second compound 0.316 µM, first compound 0.0316 µM
[14] = second compound 0.316 µM, first compound 0.1 µM
[15] = second compound 0.316 µM, first compound 0.316 µM
[16] = second compound 0.316 µM, first compound 1 µM
[17] = second compound 0.316 µM, first compound 3.16 µM
[18] = second compound 0.316 µM, first compound 10 µM
[19] = second compound 1 µM, first compound 0.0316 µM
[20] = second compound 1 µM, first compound 0.1 µM
[21] = second compound 1 µM, first compound 0.316 µM
[22] = second compound 1 µM, first compound 1 µM
[23] = second compound 1 µM, first compound 3.16 µM
[24] = second compound 1 µM, first compound 10 µM
[25] = second compound 3.16 µM, first compound 0.0316 µM
[26] = second compound 3.16 µM, first compound 0.1 µM
[27] = second compound 3.16 µM, first compound 0.316 µM
[28] = second compound 3.16 µM, first compound 1 µM
[29] = second compound 3.16 µM, first compound 3.16 µM
[30] = second compound 3.16 µM, first compound 10 µM
[31] = second compound 10 µM, first compound 0.0316 µM
[32] = second compound 10 µM, first compound 0.1 µM
[33] = second compound 10 µM, first compound 0.316 µM
[34] = second compound 10 µM, first compound 1 µM
[35] = second compound 10 µM, first compound 3.16 µM
[36] = second compound 10 µM, first compound 10 µM
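Further: spheroids exposed to the drug combinations for seven days.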
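Wherever viability, T/C is given: percent viability relative to DMSO vehicle control wells taken as 100%.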

SMILES: CC1COCCN1c1cc(C2(S(C)(=N)=O)CC2)nc(-c2ccnc3[nH]ccc23)n1 (stereo unspecified) + CN1CCN(c2cc(C(=O)Nc3cc4cc(-c5cnn(C)c5)ccc4cn3)ccn2)CC1
IC50 (second compound 0.0316 µM): > 10000 nM | IC50 (second compound 0.1 µM): > 10000 nM | IC50 (second compound 0.316 µM): 6970 nM | IC50 (second compound 1 µM): < 31.6 nM | IC50 (second compound 3.16 µM): < 31.6 nM | IC50 (second compound 10 µM): < 31.6 nM | viability, T/C [1]: 99.9% | viability, T/C [2]: 109% | viability, T/C [3]: 98.3% | viability, T/C [4]: 106% | viability, T/C [5]: 90.3% | viability, T/C [6]: 66.6% | viability, T/C [7]: 96.6% | viability, T/C [8]: 109% | viability, T/C [9]: 103% | viability, T/C [10]: 90.8% | viability, T/C [11]: 75.7% | viability, T/C [12]: 53.6% | viability, T/C [13]: 94.2% | viability, T/C [14]: 93.3% | viability, T/C [15]: 98.9% | viability, T/C [16]: 86.7% | viability, T/C [17]: 71.2% | viability, T/C [18]: 40.5% | viability, T/C [19]: 3.94% | viability, T/C [20]: 1.1% | viability, T/C [21]: 0.55% | viability, T/C [22]: 1.34% | viability, T/C [23]: 1.62% | viability, T/C [24]: 0.81% | viability, T/C [25]: 0.77% | viability, T/C [26]: 0.89% | viability, T/C [27]: 1.57% | viability, T/C [28]: 0.66% | viability, T/C [29]: 0.84% | viability, T/C [30]: 0.92% | viability, T/C [31]: 0.55% | viability, T/C [32]: 0.49% | viability, T/C [33]: 0.53% | viability, T/C [34]: 0.5% | viability, T/C [35]: 0.6% | viability, T/C [36]: 0.44%

IC50 (second compound 0.0316 µM): 316 nM | IC50 (second compound 0.1 µM): 199 nM | IC50 (second compound 0.316 µM): 166 nM | IC50 (second compound 1 µM): 166 nM | IC50 (second compound 3.16 µM): 150 nM | IC50 (second compound 10 µM): 195 nM
SMILES: O=c1[nH]cc(F)c(=O)[nH]1 + CNC(=O)c1ccc(Nc2nc(OC3CCCC3)c3c(-c4ccc5nc(C)oc5c4)c[nH]c3n2)c(OC)c1
viability, T/C [1]: 91.5% | viability, T/C [2]: 95.7% | viability, T/C [3]: 49.8% | viability, T/C [4]: 28.5% | viability, T/C [5]: 20.1% | viability, T/C [6]: 19.1% | viability, T/C [7]: 73% | viability, T/C [8]: 72.4% | viability, T/C [9]: 35.2% | viability, T/C [10]: 21.4% | viability, T/C [11]: 15.1% | viability, T/C [12]: 20.4% | viability, T/C [13]: 81% | viability, T/C [14]: 60.5% | viability, T/C [15]: 36.8% | viability, T/C [16]: 20.7% | viability, T/C [17]: 14.9% | viability, T/C [18]: 16.5% | viability, T/C [19]: 70.6% | viability, T/C [20]: 68.7% | viability, T/C [21]: 26.2% | viability, T/C [22]: 11.4% | viability, T/C [23]: 7.78% | viability, T/C [24]: 9.54% | viability, T/C [25]: 70.8% | viability, T/C [26]: 63.1% | viability, T/C [27]: 26.9% | viability, T/C [28]: 15.5% | viability, T/C [29]: 7.07% | viability, T/C [30]: 6.87% | viability, T/C [31]: 69.6% | viability, T/C [32]: 75.3% | viability, T/C [33]: 33.6% | viability, T/C [34]: 16% | viability, T/C [35]: 7.38% | viability, T/C [36]: 8.24%

SMILES: C#Cc1c(F)ccc2cc(O)cc(-c3ncc4c(N5CC6CCC(C5)N6)nc(OCC56CCCN5CC(F)C6)nc4c3F)c12 (stereo unspecified) + CN1CCN(c2cc(C(=O)Nc3cc4cc(-c5cnn(C)c5)ccc4cn3)ccn2)CC1
IC50 (second compound 0.0316 µM): > 10000 nM | IC50 (second compound 0.1 µM): > 10000 nM | IC50 (second compound 0.316 µM): > 10000 nM | IC50 (second compound 1 µM): < 31.6 nM | IC50 (second compound 3.16 µM): < 31.6 nM | IC50 (second compound 10 µM): < 31.6 nM | viability, T/C [1]: 80.6% | viability, T/C [2]: 96.9% | viability, T/C [3]: 92.9% | viability, T/C [4]: 91.9% | viability, T/C [5]: 98.1% | viability, T/C [6]: 76.8% | viability, T/C [7]: 87.4% | viability, T/C [8]: 99.8% | viability, T/C [9]: 109% | viability, T/C [10]: 94.1% | viability, T/C [11]: 85.7% | viability, T/C [12]: 71.4% | viability, T/C [13]: 90.7% | viability, T/C [14]: 92% | viability, T/C [15]: 102% | viability, T/C [16]: 98.5% | viability, T/C [17]: 81.9% | viability, T/C [18]: 66.4% | viability, T/C [19]: 3.8% | viability, T/C [20]: 4.61% | viability, T/C [21]: 1.85% | viability, T/C [22]: 9.57% | viability, T/C [23]: 2.33% | viability, T/C [24]: 1.27% | viability, T/C [25]: 0.59% | viability, T/C [26]: 0.56% | viability, T/C [27]: 0.97% | viability, T/C [28]: 0.63% | viability, T/C [29]: 1.43% | viability, T/C [30]: 0.5% | viability, T/C [31]: 0.45% | viability, T/C [32]: 0.45% | viability, T/C [33]: 0.43% | viability, T/C [34]: 0.39% | viability, T/C [35]: 0.39% | viability, T/C [36]: 0.8%
